According to PubChem BioAssay (NCI):
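Each compound was tested at five concentrations against cells in 96-well plates for 48 hours. Abbreviation: GI50, concentration required for 50% inhibition of growth. TGI: total growth inhibition.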

What was measured:
Assay in all cases: NCI tumour cell line growth inhibition, 48 h
NCI-H226 lung = tested on: NCI-H226 lung
NCI-H23 lung = tested on: NCI-H23 lung
COLO 205 colon = tested on: COLO 205 colon
HOP-92 NSCLC = tested on: HOP-92 NSCLC
UO-31 renal = tested on: UO-31 renal
HT29 colon = tested on: HT29 colon
CCRF-CEM leukemia = tested on: CCRF-CEM leukemia
HOP-62 NSCLC = tested on: HOP-62 NSCLC
HCT-116 colon = tested on: HCT-116 colon
MDA-MB-231 breast = tested on: MDA-MB-231 breast

Compound | TGI (NCI-H226 lung) | TGI (NCI-H23 lung) | TGI (COLO 205 colon) | TGI (HOP-92 NSCLC) | TGI (UO-31 renal) | TGI (HT29 colon) | TGI (CCRF-CEM leukemia) | TGI (HOP-62 NSCLC) | TGI (HCT-116 colon) | TGI (MDA-MB-231 breast) | GI50 (COLO 205 colon) | GI50 (HOP-92 NSCLC) | GI50 (UO-31 renal) | GI50 (HOP-62 NSCLC) | GI50 (HCT-116 colon) | GI50 (MDA-MB-231 breast) | GI50 (HT29 colon) | GI50 (CCRF-CEM leukemia)
COc1ccc(C2CC(c3c(O)ccc4ccccc34)=NN2C(C)=O)cc1OC (configuration not stated) | > 100 µM | 79 µM | 42.8 µM | > 100 µM | 83.3 µM | > 100 µM | 36.6 µM | 94.4 µM | 28.6 µM | 56.5 µM |  |  |  |  |  |  |  | 
N#Cc1c(N2CCCC2)ncn(-c2ccccc2)c1=O | > 100 µM | > 100 µM | > 100 µM | > 100 µM | > 100 µM | > 100 µM | > 100 µM | > 100 µM | > 100 µM | > 100 µM |  |  |  |  |  |  |  | 
O=C(N/N=C(/COc1ccc(Cl)cc1)N=Cc1ccncc1)c1ccncc1 | > 100 µM | > 100 µM | > 100 µM | > 100 µM |  | > 100 µM | > 100 µM | > 100 µM | > 100 µM | > 100 µM |  |  |  |  |  |  |  | 
COc1ccc(N/N=C2\CCOc3ccc(C)cc3C2=O)cc1 | 90.7 µM |  | > 100 µM | > 100 µM | > 100 µM | 61.1 µM | > 100 µM | > 100 µM | > 100 µM | > 100 µM |  |  |  |  |  |  |  | 
CN1C(=O)C2CCC(=O)N2c2cccnc21 (configuration not stated) | > 100 µM | > 100 µM | > 100 µM |  | > 100 µM | > 100 µM | > 100 µM | > 100 µM | > 100 µM | > 100 µM |  |  |  |  |  |  |  | 
CC(C)(C)OC(=O)NCCCCC1NC(=O)[C@@H]2Cc3c([nH]c4ccccc34)C(C3CCCCC3)N2C1=O (some centres not stated) | > 100 µM | > 100 µM | 55.1 µM | > 100 µM | > 100 µM | > 100 µM |  | > 100 µM | > 100 µM | > 100 µM |  |  |  |  |  |  |  | 
CCOC(=O)c1csc(NC(=O)CN2CCOCC2)n1 |  | > 100 µM | > 100 µM | > 100 µM | > 100 µM | > 100 µM | > 100 µM | > 100 µM |  | > 100 µM |  |  |  |  |  |  |  | 
CC(=O)O[C@@H]1[C@H](C(C)C)[C@@H](OC(C)=O)C/C(C)=C/CC[C@]2(C)O[C@@H]12 | > 100 µM | > 100 µM | > 100 µM | > 100 µM | > 100 µM | > 100 µM |  | > 100 µM | > 100 µM | > 100 µM |  |  |  |  |  |  |  | 
O=C1c2ccccc2-c2c1c1ccccc1c(=O)n2CCNCCNCCNCCn1c2c(c3ccccc3c1=O)C(=O)c1ccccc1-2 |  |  | > 20.3 µM | > 100 µM | 2.64 µM |  |  | 2.45 µM | > 100 µM | 1.01 µM | 1.76 µM | 2.9 µM | 1.12 µM | 0.0483 µM | 0.111 µM | 0.136 µM |  | 
COc1ccc(-c2c(C#N)c(-c3ccc(C)cc3)n(NS(=O)(=O)c3ccc(C)cc3)c(=O)c2C#N)cc1 | > 100 µM |  | > 100 µM | > 100 µM |  | > 100 µM | 81.6 µM | > 100 µM | > 100 µM | > 100 µM |  |  |  |  |  |  |  | 
O=C1CC(NC(=O)C(F)(F)F)c2c(Br)sc(N3CCNCC3)c21 (configuration not stated) | > 100 µM | > 100 µM | > 100 µM | > 100 µM | > 100 µM | > 100 µM | > 100 µM |  | > 100 µM | > 100 µM |  |  |  |  |  |  |  | 
CC1CCC(n2c3cnccc3c3cnc(Nc4ccc5c(n4)CCN(C(=O)CO)C5)nc32)CC1 (configuration not stated) |  |  |  | > 100 µM | > 100 µM | > 100 µM | > 100 µM |  | > 100 µM | > 100 µM |  | > 100 µM | 0.263 µM |  | 0.462 µM | 1.38 µM | 0.596 µM | 0.448 µM
COc1cc2nc3n(c(=O)c2cc1OC)-c1ccc([N+](=O)[O-])cc1C3=O | > 100 µM | > 100 µM | > 100 µM | > 100 µM | 35 µM | > 100 µM |  | > 100 µM | > 100 µM | > 100 µM |  |  |  |  |  |  |  | 
O=C1/C(=C\c2ccccc2)C(NC2CCCCC2)c2ccccc21 (configuration not stated) | 14.1 µM | 2.28 µM | 3.22 µM | 4.8 µM | 2.31 µM |  | 0.294 µM | 7.21 µM | 2.44 µM | 5.2 µM |  |  |  |  |  |  |  | 
COc1cccc(C(=O)O[C@H]2[C@@H]3[C@]4(OC(C)=O)CO[C@@H]4C[C@H](O)[C@@]3(C)C(=O)[C@H](OC(C)=O)C3=C(C)[C@@H](OC(=O)[C@H](O)[C@@H](NC(=O)OC(C)(C)C)c4ccco4)C[C@]2(O)C3(C)C)c1 | > 15.2 µM | > 37.5 µM | 0.119 µM |  | > 35 µM | 0.133 µM | 0.368 µM | > 32.7 µM | 9.93 µM | > 37.5 µM |  |  |  |  |  |  |  | 
Cc1nc2n(c1/C=C1/C(=O)Nc3cccc(Cl)c31)CCS2 |  | > 100 µM | > 100 µM | 66.8 µM | > 100 µM | > 100 µM | > 100 µM | 74.1 µM | > 100 µM | 52.5 µM |  |  |  |  |  |  |  | 
COC(=O)c1c(C)cccc1C1CN=NC12Cc1ccc(C)cc1C2=O (configuration not stated) | > 100 µM | > 100 µM |  | > 100 µM | > 100 µM | > 100 µM | > 100 µM | > 100 µM | 74 µM | > 100 µM |  |  |  |  |  |  |  | 
O=C1CCCc2cc3c(cc21)CC1(Cc2ccccc2C1)C3 | 12.8 µM | > 100 µM | 5.11 µM | 53 µM |  | 8.6 µM |  | 32.6 µM | 13.6 µM | 46.6 µM |  |  |  |  |  |  |  | 
O=C1CCCSC(=O)N1Cc1ccccc1 | > 100 µM | > 100 µM | > 100 µM | > 100 µM |  | > 100 µM | > 100 µM | > 100 µM | > 100 µM | > 100 µM |  |  |  |  |  |  |  | 
CN(C)C(=O)O/N=C1/C(c2c(O)[nH]c3ccccc23)=Nc2ccccc21 |  | > 100 µM | > 100 µM | 33 µM | > 100 µM | > 100 µM | > 100 µM | 48.9 µM | > 100 µM | 65 µM |  |  |  |  |  |  |  | 
c1ccc(-c2nc(-c3ccccc3SSc3ccccc3-c3nc(-c4ccccc4)nn3-c3ccccc3)n(-c3ccccc3)n2)cc1 | > 100 µM | > 100 µM | > 100 µM | > 100 µM | > 100 µM |  | > 100 µM |  | > 100 µM | > 100 µM |  |  |  |  |  |  |  | 
[N-]=[N+]=NC[C@H]1OCO[C@H](CN=[N+]=[N-])[C@@H](OCCOCCCl)[C@@H]1OCCOCCCl | > 100 µM | > 100 µM | > 100 µM |  | 57.2 µM | > 100 µM | > 100 µM | > 100 µM | > 100 µM | > 100 µM |  |  |  |  |  |  |  | 
